Patent publication US10413559B2, “Method for treating demyelinating disease” (OCHANOMIZU UNIVERSITY, priority 2013, dated 2019)

Assays:
[1] = test system: demyelination model mice (0.2% cuprizone); experiment: Myelin level by Black Gold staining in cuprizone demyelination model mice (Example 1); assay type: in vivo, C57BL/6 mice; settings: intraperitoneal 40 μg/200 μl saline/day for 5 weeks, FIG. 2
Protocol: 10-week-old male C57BL/6 mice were fed with a mash feed containing 0.2% cuprizone for five weeks until the most significant demyelination occurred, so as to produce demyelination model mice. cPA and carba-cPA (cPA) powders were each dissolved in a saline, and the obtained solutions were each administered intraperitoneally at a dose of 40 μg/200 μl saline/day to the mice every day for 5 weeks. On the other hand, to negative control mice, a saline (200 μl/day) was intraperitoneally administered in the same manner as described above. The mice, to which the test compound had been administered, were subjected to perfusion fixation with 4% paraformaldehyde, and sections to be used for frozen tissue staining (30 μm) were then prepared in a cryostat (FIG. 1). The level of myelin in each mouse was measured by Black Gold staining, and the demyelination level was then measured based on the stained level (FIG. 2).

[2] = test system: demyelination model mice (0.2% cuprizone); experiment: Test of motor function impairment using rotarod; assay type: in vivo, C57BL/6j mice; settings: intraperitoneal 1.6 mg/kg/day for 5 weeks, 28 rpm, 300 seconds, FIG. 9, FIG. 10
Source text: 10-week-old male C57BL/6j mice (Tokyo Laboratory Animals Science Co., Ltd., Tokyo, Japan) were fed by the discretionary intake of a mash feed (CLEA Japan, Inc.) that contained 0.2% cuprizone (biscyclohexanone oxalyl hydrazone; Merck KGaA, Darmstadt, Germany) for 5 weeks until demyelination progressed most, so as to produce demyelination model mice involving demyelination caused by oligodendrocyte-specific cell death. The cPA used in the experiment was the same cPA (16:0) as that used in Example 1, and the carba-cPA was 2 ccPA (16:1). The cPA and 2 ccPA were chemically purified (Biochimica et Biophysica Acta, Emi Nozaki 2011), and were then dissolved in a 0.9% saline. […] The locomotion time on the rod was evaluated by measuring the time required for the mice to fall from the rotating rod within a record time of 300 seconds. Moreover, even after the mice had fallen from the rod, they were forced to continue their activity immediately after the falling, so that a total number of the activities from falling from the rod to holding on to the rod for 300 seconds (a number of falls and flips) was measured and evaluated. The data of the test of motor function impairment were analyzed according to a non-parametric method using a Kruskal-Wallis test. All of other data were analyzed according to a one-way ANOVA method using a Newman-Keulis test. […]

CCCCCCCCCCCCCCCC(=O)OCC1COP(=O)(O)O1 (centres unmarked) [cPA]
level of myelin (Black Gold staining) versus control mouse [1]: higher than the level of myelin in a control mouse | motor function impairment (rotarod) [2]: motor function impairment is improved
